{"source": "patent US8999892B2", "about": "“Use of S-abscisic acid for improving fruit set and producing parthenocarpic fruits and as a growth inhibitor” (Globachem, priority 2004, dated 2015)", "assay_type_in_all_cases": "in vivo", "key": {"[1]": {"tested_on": "apple trees, variety Boskoop", "assay": "Promoting fruit set, production of parthenocarpic fruits and inhibition of growth in pome fruit, orchard spray trial 2004", "conditions": "for Number of apples/tree / Number of unclosed buds/tree (crown tip excluded): evaluation 6 Jul. 2004", "excerpt": "Experimental period: 2004 Pome fruit crops treated: apple trees, variety Boskoop The fruit orchard was sprayed on 23 April, that is, during full flower. A further plot was spayed on 20 May 2004. S-ABA was applied in a dose of 2 g/ha. For the control experiment, the same formulation, but with-out S-ABA, was used. The number of fruit trees per plot was 40. The evaluation on 6 Jul. 2004 provided the following results: The buds or shoots in the crown tip of the trees were not taken into account because increased shoot growth frequently occurs in these places due to intensive cutting measures. In general, the growth of shoots in the crown tip is stronger than in the other regions of the tree crown."}, "[2]": {"tested_on": "cherry trees, variety Summit", "assay": "Improvement of fruit set in stone fruit, orchard spray trial 2004", "conditions": "2 g/ha sprayed one week after flowering", "excerpt": "Experimental period: 2004 Stone fruit crops treated: cherry trees, variety Summit The fruit orchard was sprayed with S-ABA one week after flowering; the dose was 2 g/ha. For the control experiment, the same formulation, but without S-ABA, was used. The number of fruit trees per plot was 5."}, "[3]": {"tested_on": "apple trees, variety Jonagored", "assay": "Promoting fruit set in pome fruit, orchard spray trial 2003", "conditions": "2 g/ha sprayed three weeks after full flower", "excerpt": "Experimental period: 2003 Pome fruit crops treated: apple trees, variety Jonagored. The fruit orchard was sprayed on 9 May, that is, three weeks after full flower (18 April). S-ABA was applied in a dose of 2 g/ha. For the control experiment, the same formulation, but without S-ABA, was used. The number of fruit trees per plot was 10."}, "[4]": {"conditions": "2 g/ha sprayed 23 April (full flower)"}}, "data": [{"smiles": "CC(C=C[C@@]1(O)C(C)=CC(=O)CC1(C)C)=CC(=O)O", "note": "(stereo in doubt) [S-ABA, (S)-5-(1-hydroxy-2,6,6-trimethyl-4-oxo-2-cyclohexenyl)-3-methyl-cis/trans-2,4-pentanedienoic acid]", "values": [{"measurement": "Number of apples/tree", "setting": "[1]; 2 g/ha sprayed 20 May", "value": 42}, {"measurement": "Number of unclosed buds/tree (crown tip excluded)", "setting": "[1]; 2 g/ha sprayed 20 May", "value": 0}, {"measurement": "Number of apples/tree", "setting": "[1]; [4]", "value": 35.4}, {"measurement": "Number of unclosed buds/tree (crown tip excluded)", "setting": "[1]; [4]", "value": 1.66}, {"measurement": "Increase in total number of apples per tree as compared with the control", "setting": "[1]; plot treated 20 May", "value": "approximately 21%"}, {"measurement": "Closure of buds (inhibition of vegetative growth)", "setting": "[1]; plots treated with S-ABA, independently of the time of treatment", "value": "almost all buds were closed"}, {"measurement": "Effect on fruit set of treatment during flowering", "setting": "[1]; treatment during flowering (23 April)", "value": "not adversely affected"}, {"measurement": "Formation of parthenocarpic fruits", "setting": "[1]; trees treated with 2 g/ha", "value": "parthenocarpic, pipless fruits were formed"}, {"measurement": "Formation of parthenocarpic fruits", "setting": "[2]", "value": "Parthenocarpic fruits were not observed"}, {"measurement": "Increase in number of fruits compared to the control plot", "setting": "[2]", "value": "near doubling of the number of fruits"}, {"measurement": "Weight per cherry", "setting": "[2]", "value": "not significantly influenced"}, {"measurement": "Yield", "setting": "[2]; 5 trees per plot", "value": 25, "unit": "kg/tree"}, {"measurement": "Apples in grade 75-85 mm", "setting": "[3]", "value": 15.54, "unit": "kg"}, {"measurement": "Apples in grade A2++ (75-85 mm)", "setting": "[3]", "value": 9.62, "unit": "kg"}, {"measurement": "Increase in number of apples per tree as compared to the control", "setting": "[3]", "value": 17, "unit": "%"}, {"measurement": "Increase in yield (in kg) as compared to the control", "setting": "[3]", "value": 8, "unit": "%"}, {"measurement": "Increase in yield in the high grades", "setting": "[3]", "value": 84, "unit": "%"}, {"measurement": "Increase in yield of grade A2++ (optimal fruit color)", "setting": "[3]", "value": "near doubling of the yield"}, {"measurement": "Number of apples/tree", "setting": "[3]", "value": 129}, {"measurement": "Yield", "setting": "[3]; 10 trees per plot", "value": 33.37, "unit": "kg/tree"}]}]}
